# Assays:
# 661W or C6 cells [1] = assay: XF FCCP-uncoupled oxygen consumption rate assay (IBMX challenge); format: cell-based; conditions: 1 h pretreatment, 600 μM IBMX, 24 h, read-out: XF FCCP OCR (% Ctrl); for activity at 0.001 µM: compound 1 nM; for activity at 0.01 µM: compound 10 nM; for activity at 0.0008 µM: compound 800 pM;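 for all read-outs here: values normalized to the vehicle control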
# Method: The XF FCCP-uncoupled oxygen consumption rate assay assesses mitochondrial capacity by measuring cellular respiration. It was shown that the maximum FCCP-uncoupled oxygen consumption rate (OCR) was a good estimate of maximal mitochondrial capacity (Beeson 2010) and that IBMX treatment of 661W or C6 cells for 24 h caused a loss in maximal uncoupled OCR (Perron 2013). Thus, cells were pretreated with the exemplified compounds for 1 h, added 600 μM IBMX and then measured the uncoupled rate after 24 h. In brief, the OCR measurements were performed using a Seahorse Bioscience XF instrument (Seahorse Bioscience, Billerica, Md.), as previously published (Perron 2013). O2 leakage through the plastic sides and bottom of the plate was accounted for using the AKOS algorithm in the XF software package. Cells were plated on 96- or 24-well custom plates designed for use in the XF and grown to confluency in DMEM+5% FBS (48 h). The medium was then replaced with DMEM+1% FBS for 24 h, along with any treatments.
# 661W or C6 cells [2] = assay: MTT assay, protection against calcium-ionophore A23187; format: cell-based; conditions: 1 μM A23187, 24 h
# Method: The compound 3-(4,5-Dimethylthiazol-2-yl)-2,5-diphenyltetrazolium bromide (MTT) is a tetrazolium ion that is reduced to a blue formazan dye via several families of NAD(P)H-dependent oxidoreductases. Formation of the formazan dye from MTT or other related tetrazolium dyes are commonly used as a viability assay even though, in fact, the assay is a metabolic capacity assay.
# In this assay, 661W or C6 cells were maintained in DMEM supplemented with 10% FBS. 100 μL of 70,000 cells/mL cells were seeded into each well of 96 well plates using DMEM supplemented with 5% FBS. Cells were then allowed to grow to confluency for 48 hours. The compounds of the invention were added in 2 μL media and calcium-ionophore A23187 was then added in 1 μL for a final concentration of 1 μM and after 24 h, 20 μL of […] MTT were added to each well and the cells were incubated for another 4 h after which 100 μL of 1% SDS in 0.01M aqueous HCl were added to each well and the plates were incubated overnight. Absorbance was measured at […] (background correction). The 1 μM ionophore A23187 caused about 50% loss in MTT signal at 24 h. Protection was calculated as the increase in absorbance of treatment groups normalized to the vehicle control.
# Balb/c mice = assay: Light model assay (constant light damage, eyedrops); format: in vivo, mouse; conditions: 1 mM eyedrops once per day; continuous light 7 days; rows of photoreceptors
# Source text: The light model assay is generally accepted as a model of age related macular degeneration (AMD). […] In particular, oxidative damage has been detected by immunohistochemistry, detecting the presence of oxidized and tyrosine-phosphorylated proteins as well as the upregulation of endogenous antioxidants such as thioredoxin and glutathione peroxidase. […] Additional indirect evidence for the involvement of oxidative stress in photoreceptor degeneration has been provided by treatment of photodamaged retinas with antioxidants such as dimethylthiourea, or the treatment of N-methyl-N-nitrosourea (MNU)-challenged rats with the antioxidant DHA.
# The light model assay was used to further test the therapeutic potential of the compounds of the invention. Photoreceptors from albino animals are very sensitive to constant light, lacking the RPE pigment to protect them. Thus, Balb/c mice were exposed to continuous light for 7 days, which caused loss of about 50% of the photoreceptor cells as measured via histology. To test the potential therapeutic efficacy, eyedrops were formulated in 0.1% Bij 35 in […], applied once or twice daily throughout the period of light exposure, and their effect assessed on the light-induced degeneration of photoreceptor cells morphologically and electrophysiologically, 10 days after the onset of the CL exposure.
structure (smiles),measurement,setting,value
"O=C1N(CCN2CCCCC2)c2ccc(Cl)cc2C1(O)Cc1ccccn1 (stereo not shown) [Example 4, 5-chloro-3-hydroxy-1-(2-(piperidin-1-yl)ethyl)-3-(pyridin-2-ylmethyl)indolin-2-one]",activity at 0.001 µM,661W or C6 cells [1],69%
same,"MTT, % protection",661W or C6 cells [2]; compound 800 pM,"61.5%,"
"CCCN1C(=O)C(O)(CC(=O)c2cccc(OC)n2)c2cc(C)ccc21 (stereo not shown) [Example 26, 3-hydroxy-3-(2-(6-methoxypyridin-2-yl)-2-oxoethyl)-5-methyl-1-propylindolin-2-one]",activity at 0.001 µM,661W or C6 cells [1],62%
same,"MTT, % protection",661W or C6 cells [2]; compound 10 nM,"83.8%,"
"COc1ccc(O)c(CC2(OC(=O)c3ccccc3)C(=O)N(CCc3ccccc3)c3ccc(Cl)cc32)c1 (stereo not shown) [Example 61, 5-chloro-3-(2-hydroxy-5-methoxybenzyl)-2-oxo-1-phenethylindolin-3-yl benzoate]",activity at 0.001 µM,661W or C6 cells [1],67%
same,"MTT, % protection",661W or C6 cells [2]; compound 1 nM,"87.1%,"
"CCCCN1C(=O)C(Cc2c[nH]c3ccccc23)(OC(=O)c2ccccc2)c2ccccc21 (stereo not shown) [Example 65, 3-((1H-indol-3-yl)methyl)-1-butyl-2-oxoindolin-3-yl benzoate]",activity at 0.0005 µM,661W or C6 cells [1]; compound 500 pM,61%
same,"MTT, % protection",661W or C6 cells [2]; compound 500 pM,"135%,"
"COc1cc(CC2(OC(=O)c3ccccc3)C(=O)N(CCc3ccccc3)c3ccc(Cl)cc32)cc(OC)c1OC (stereo not shown) [Example 50, 5-chloro-2-oxo-1-phenethyl-3-(3,4,5-trimethoxybenzyl)indolin-3-yl benzoate]",activity at 0.001 µM,661W or C6 cells [1],65%
same,"MTT, % protection",661W or C6 cells [2]; compound 1 nM,"79.2%,"
"CCCN1C(=O)C(O)(Cc2cccc(OC)c2)c2cc(C)ccc21 (stereo not shown) [Example 43, 3-hydroxy-3-(3-methoxybenzyl)-5-methyl-1-propylindolin-2-one]",activity at 0.001 µM,661W or C6 cells [1],69%
same,"MTT, % protection",661W or C6 cells [2]; compound 1 nM,"64.8%,"
"CCCN1C(=O)C(O)(CC(=O)c2ccccn2)c2cc(Cl)ccc21 (stereo not shown) [Example 23, 5-chloro-3-hydroxy-3-(2-oxo-2-(pyridin-2-yl)ethyl)-1-propylindolin-2-one]",activity at 0.01 µM,661W or C6 cells [1],73%
same,"MTT, % protection",661W or C6 cells [2]; compound 10 nM,"73%,"
"CCN1C(=O)C(O)(Cc2ccc(OC)cc2)c2cc(C)ccc21 (stereo not shown) [Example 51, 1-ethyl-3-hydroxy-3-(4-methoxybenzyl)-5-methylindolin-2-one]",activity at 0.001 µM,661W or C6 cells [1],65%
same,"MTT, % protection",661W or C6 cells [2]; compound 1 nM,"62.2%,"
"CCN1C(=O)C(Cc2cccc(OC)c2)(OC(=O)c2ccccc2)c2cc(Cl)ccc21 (stereo not shown) [Example 40, 5-chloro-1-ethyl-3-(3-methoxybenzyl)-2-oxoindolin-3-yl benzoate]",activity at 0.001 µM,661W or C6 cells [1],66%
same,"MTT, % protection",661W or C6 cells [2]; compound 1 nM,"81.1%,"
"CCCN1C(=O)C(O)(Cc2ccc(OC)cn2)c2cc(C)ccc21 (stereo not shown) [Example 6, 3-hydroxy-3-((5-methoxypyridin-2-yl)methyl)-5-methyl-1-propylindolin-2-one]",activity at 0.0008 µM,661W or C6 cells [1],67%
same,"MTT, % protection",661W or C6 cells [2]; compound 500 pM,"68.8%,"
"CCCN1C(=O)C(Cc2c[nH]c3ccccc23)(OC(=O)c2ccccc2)c2cc(Cl)ccc21 (stereo not shown) [Example 63, 3-((1H-indol-3-yl)methyl)-5-chloro-2-oxo-1-propylindolin-3-yl benzoate]",activity at 0.001 µM,661W or C6 cells [1],78%
same,"MTT, % protection",661W or C6 cells [2]; compound 1 nM,"120%,"
"CCCN1C(=O)C(O)(CC(=O)c2cccc(OC)n2)c2cc(Cl)cc(Cl)c21 (stereo not shown) [Example 30, 5,7-dichloro-3-hydroxy-3-(2-(6-methoxypyridin-2-yl)-2-oxoethyl)-1-propylindolin-2-one]",activity at 0.001 µM,661W or C6 cells [1],59%
same,"MTT, % protection",661W or C6 cells [2]; compound 1 nM,"69%,"
"CCN1C(=O)C(Cc2cc(OC)ccc2O)(OC(=O)c2ccccc2)c2cc(Cl)ccc21 (stereo not shown) [Example 62, 5-chloro-1-ethyl-3-(2-hydroxy-5-methoxybenzyl)-2-oxoindolin-3-yl benzoate]",activity at 0.0008 µM,661W or C6 cells [1],70%
same,"MTT, % protection",661W or C6 cells [2]; compound 800 pM,"86.4%,"
"COc1cccc(C(=O)CC2(O)C(=O)N(CCCN=[N+]=[N-])c3ccc(C)cc32)n1 (stereo not shown) [Example 28, 1-(3-azidopropyl)-3-hydroxy-3-(2-(6-methoxypyridin-2-yl)-2-oxoethyl)-5-methylindolin-2-one]",LD Protection (# of rows),Balb/c mice,5.55 # of rows
same,"MTT, % protection",661W or C6 cells [2]; compound 1 μM,"65.9%,"
"CCCN1C(=O)C(O)(CC(=O)c2ccc(OC)nc2OC)c2cc(C)ccc21 (stereo not shown) [Example 25, 3-(2-(2,6-dimethoxypyridin-3-yl)-2-oxoethyl)-3-hydroxy-5-methyl-1-propylindolin-2-one]",activity at 0.001 µM,661W or C6 cells [1],57%
same,"MTT, % protection",661W or C6 cells [2]; compound 1 nM,"73.8%,"
"CCCN1C(=O)C(O)(CC(=O)c2c[nH]c3ccccc23)c2cc(C)ccc21 (stereo not shown) [Example 24, 3-(2-(1H-indol-3-yl)-2-oxoethyl)-3-hydroxy-5-methyl-1-propylindolin-2-one]",activity at 0.01 µM,661W or C6 cells [1],59%
same,"MTT, % protection",661W or C6 cells [2]; compound 1 nM,"69%,"
"COc1cccnc1CC1(O)C(=O)N(CCc2ccccc2)c2ccc(Cl)cc21 (stereo not shown) [Example 3, 5-chloro-3-hydroxy-3-((3-methoxypyridin-2-yl)methyl)-1-phenethylindolin-2-one]",activity at 0.001 µM,661W or C6 cells [1],74.5%
same,"MTT, % protection",661W or C6 cells [2]; compound 1 nM,"74.5%,"
"COc1cc(CC2(OC(=O)c3ccccc3)C(=O)N(CC(C)C)c3ccc(Cl)cc32)cc(OC)c1OC (stereo not shown) [Example 35, 5-chloro-1-isobutyl-2-oxo-3-(3,4,5-trimethoxybenzyl)indolin-3-yl benzoate]",activity at 0.0008 µM,661W or C6 cells [1],55%
same,"MTT, % protection",661W or C6 cells [2]; compound 800 pM,"113.5%,"
"COc1cc(CC2(OC(=O)c3ccccc3)C(=O)N(CCc3ccccc3)c3ccc(C)cc32)cc(OC)c1 (stereo not shown) [Example 39, 3-(3,5-dimethoxybenzyl)-5-methyl-2-oxo-1-phenethylindolin-3-yl benzoate]",activity at 0.001 µM,661W or C6 cells [1],66%
same,"MTT, % protection",661W or C6 cells [2]; compound 1 nM,"83.2%,"
"CCN1C(=O)C(Cc2cc(OC)cc(OC)c2)(OC(=O)c2ccccc2)c2cc(C)ccc21 (stereo not shown) [Example 38, 3-(3,5-dimethoxybenzyl)-1-ethyl-5-methyl-2-oxoindolin-3-yl benzoate]",activity at 0.001 µM,661W or C6 cells [1],78%
same,"MTT, % protection",661W or C6 cells [2]; compound 1 nM,"84.1%,"
"COc1ccc(CC2(OC(=O)c3ccccc3)C(=O)N(CCCC(C)C)c3ccc(C)cc32)c(O)c1 (stereo not shown) [Example 53, 3-(2-hydroxy-4-methoxybenzyl)-5-methyl-1-(4-methylpentyl)-2-oxoindolin-3-yl benzoate]",activity at 0.001 µM,661W or C6 cells [1],91%
same,"MTT, % protection",661W or C6 cells [2]; compound 1 nM,"100%,"
"CCCN1C(=O)C(O)(CC(=O)c2ccc(OC)nc2OC)c2cc(Cl)ccc21 (stereo not shown) [Example 22, 5-chloro-3-(2-(2,6-dimethoxypyridin-3-yl)-2-oxoethyl)-3-hydroxy-1-propylindolin-2-one]",activity at 0.01 µM,661W or C6 cells [1],76%
same,"MTT, % protection",661W or C6 cells [2]; compound 10 nM,"71.8%,"
"CCCCN1C(=O)C(O)(Cc2cc(OC)cc(OC)c2)c2cc(Cl)ccc21 (stereo not shown) [Example 41, 1-butyl-5-chloro-3-(3,5-dimethoxybenzyl)-3-hydroxyindolin-2-one]",activity at 0.001 µM,661W or C6 cells [1],79%
same,"MTT, % protection",661W or C6 cells [2]; compound 1 μM,"66.8%,"
"CCCCN1C(=O)C(O)(Cc2cccc(OC)c2)c2cc(Cl)ccc21 (stereo not shown) [Example 42, 1-butyl-5-chloro-3-hydroxy-3-(3-methoxybenzyl)indolin-2-one]",activity at 0.001 µM,661W or C6 cells [1],71%
same,"MTT, % protection",661W or C6 cells [2]; compound 1 nM,"69.8%,"
"COc1cc(CC2(O)C(=O)N(CC(C)C)c3ccc(C)cc32)cc(OC)c1OC (stereo not shown) [Example 37, 3-hydroxy-1-isobutyl-5-methyl-3-(3,4,5-trimethoxybenzyl)indolin-2-one]",activity at 0.001 µM,661W or C6 cells [1],65%
same,"MTT, % protection",661W or C6 cells [2]; compound 800 pM,"68.4%,"
"COc1cc(CC2(O)C(=O)N(CC(C)C)c3ccccc32)cc(OC)c1OC (stereo not shown) [Example 48, 3-hydroxy-1-isobutyl-3-(3,4,5-trimethoxybenzyl)indolin-2-one]",activity at 0.001 µM,661W or C6 cells [1],85%
same,"MTT, % protection",661W or C6 cells [2]; compound 1 nM,"91%,"

# Reference: US9079853B2, “Isatin compounds, compositions and methods for treatment of degenerative diseases and disorders” (MUSC FOUNDATION FOR RESEARCH DEVELOPMENT, priority 2013, dated 2015)
